Data: paper PMC10484922, “Discovery of a selective and biologically active low-molecular weight antagonist of human interleukin-1β” (Nature Communications, 2023)
Several values for one entry are separate records, joined by “and”; a condition that tells them apart may be missing. Equal values may be shown once. Read-outs that look alike come from different tables or passages of the source.

Key:
[1] = molecular target: T1, IL-1β (Homo sapiens, UniProt P01584); experiment: 19F-reporter displacement assay with (S)-1 as probe; format: binding; set-up: Mature hIL-1β was expressed in Escherichia coli; made in house; host or cells: Escherichia coli BL21 (DE3), pET17b
T1 sequence (P01584 117-269): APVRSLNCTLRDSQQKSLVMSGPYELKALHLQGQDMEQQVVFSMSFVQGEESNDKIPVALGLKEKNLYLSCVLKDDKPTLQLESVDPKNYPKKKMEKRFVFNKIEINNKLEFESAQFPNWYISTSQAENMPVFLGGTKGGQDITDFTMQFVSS
Method: Protein and reporter concentrations were 10 and 40 μM, respectively. To account for changes in sample homogeneity, samples contained 1-(2,2,2-trifluoroacetyl)piperidine-4-carboxylic acid as an internal reference for scaling signal intensities. Three concentrations of the competitor were typically measured, and the related displacement of the probe was converted into Ki-values according to Dalvit and Vulpetti[17]. […] This process was automated with FRPipe, an in-house developed Python script (https://github.com/Novartis/FRPipe) that allows for streamlined analysis of such experiments. […] For visual inspection, an overview containing relevant ^19F peaks, fitting curves, and proton spectra was plotted.
Supplementary Figure 2. 13C-NMR and 19F-NMR reporter assays to monitor early structure activity relationships of analogues of 1. a, b Early structure activity relationships monitored by protein-observed and c-f 19F-NMR reporter assays, exemplified for compound 8. a 1H-13C-HMQC spectra of hIL-1b (50 µM) were acquired in the presence (red) and absence (blue) of 500 µM compound and rows were extracted at the w1-frequency of the peak corresponding to Leu60 Cd1H3. b The degree of protein binding was estimated from the ratio I/I0, where I and I0 correspond to the signal in the presence and absence of compound, respectively. c For the assessment of the KI-values, the signal intensity of a reporter molecule (S)-1 was monitored in 19F-transverse relaxation experiments run in the absence and presence of increasing amounts of compound. d All intensities were scaled to the intensity of an internal standard (all signals in panel c and d are shifted on the X-axis for clarity). e KI-values were retrieved from theoretical binding curves calculated for each compound concentration8. f One-dimensional 1H-NMR spectra were recorded for each assay mixture to assess the structural integrity and solubility of the compound in the sample.
(1 picture or pasted object on this page, not shown here)

[2] = molecular target: T1, IL-1β; experiment: TR-FRET IL-1β/hIL-1R1 receptor displacement assay; format: biochemical
Method: After 1 h incubation at room temperature, hIL-1R1 (1–332; Alexa 647 labeled; 50 nM final concentration) and anti-His-Europium W1024 (Perkin Elmer; Cat.No. AD0401, 1 nM final concentration) were added to a final volume of 10 μl per well. […] All experiments were run in triplicates.

[3] = molecular target: T1, IL-1β; experiment: protein-observed 1H-13C-HMQC NMR binding (I/Io of Leu60 Cδ1H3); set-up: Mature hIL-1β was expressed in Escherichia coli; made in house; host or cells: Escherichia coli BL21 (DE3), pET17b; conditions: hIL-1β 50 µM, 500 µM compound
Method: ^1H–^13C- and ^1H–^15N-HMQC spectra were recorded on Bruker AVANCE 600 MHz and 800 MHz spectrometers equipped with TXI-cryocooled probeheads. In ligand binding experiments, protein concentrations were typically 50 μM in PBS, pH 7.4. Backbone assignments of hIL-1β in the ligand-bound state and unliganded state were obtained by a combination of a 3D triple resonance experiment HNCACB and a ^15N-edited NOESY spectrum, which were processed using TOPSPIN 3.2 and analyzed using CcpNmr AnalysisAssign 3.1.0[46]. ^15N-CEST experiments were run at weak B1 radiofrequency fields of 25 and 12.5 Hz on a Bruker AVANCE 800 MHz spectrometer with 113 increments and a total sweep width of 28 ppm in the pseudo-3D dimension. Peak intensities were extracted by fitting pseudo-Voigt lineshape models using peakipy (https://github.com/j-brady/peakipy). Fitted peak intensities were subsequently used to generate CEST profiles, and exchange parameters were fitted using ChemEx (https://github.com/gbouvignies/ChemEx).
Supplementary Figure 2. 13C-NMR and 19F-NMR reporter assays to monitor early
13C-HMQC spectra of hIL-1b (50 µM) were acquired in the presence (red) and absence (blue) of 500
µM compound and rows were extracted at the w1-frequency of the peak corresponding to Leu60 […]

[4] = molecular target: T2, IL-1α (Homo sapiens, UniProt P01583); experiment: TR-FRET IL-1α/hIL-1R1 receptor displacement assay; format: biochemical; set-up: TR-FRET raw data: scale not given here
T2 sequence (P01583 113-271): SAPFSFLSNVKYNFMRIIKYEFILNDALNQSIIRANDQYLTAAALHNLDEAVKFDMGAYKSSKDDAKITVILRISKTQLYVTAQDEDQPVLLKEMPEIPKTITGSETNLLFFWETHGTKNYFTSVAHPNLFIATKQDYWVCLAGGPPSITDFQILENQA
Method: After 1 h incubation at room temperature, hIL-1R1 (1–332; Alexa 647 labeled; 50 nM final concentration) and anti-His-Europium W1024 (Perkin Elmer; Cat.No. AD0401, 1 nM final concentration) were added to a final volume of 10 μl per well. After 1 h of incubation at room temperature, time-resolved fluorescence was measured at λexc = 320 ± 20 nm, λem = 620 ± 25 nm/665 ± 25 nm using a Pherastar FSX plate reader. All experiments were run in triplicates. The data provided a typical saturation-binding curve, and the IC50 values were calculated by fitting the results to the Hill equation using Prism 7.0 and the in-house software Helios.

[5] = 19F-reporter Ki, protein 10 μM, reporter (S)-1 40 μM
[6] = 19F-reporter, individual experiments (Exp1-58), source data
[7] = Il1b wt, read-out: TR-FRET IC50, individual experiments
[8] = IL-1beta, 0.01 uM, per experiment
[9] = IL-1beta, 0.02 uM, per experiment
[10] = IL-1beta, 0.1 uM, per experiment
[11] = IL-1beta, 0.2 uM, per experiment
[12] = IL-1beta, 0.6 uM, per experiment
[13] = IL-1beta, 63 uM, per experiment
[14] = IL-1alpha, 0.01 uM, per experiment
[15] = IL-1alpha, 0.1 uM, per experiment
[16] = IL-1alpha, 0.2 uM, per experiment
[17] = IL-1alpha, 2 uM, per experiment
[18] = IL-1alpha, 63 uM, per experiment
[19] = IL-1alpha, 200 uM, per experiment

## Cc1ccc2c(c1)NC(=O)C2(O)c1cc(-c2ccc(C(=O)O)cc2)ccc1O (stereo not drawn) [Compound 10]
[1]; [5]
  Ki: 75 ± 40 µM
[1]; [6]
  Ki: 103 µM and 47 µM
[2]; [7]
  IC50: 200 µM and 134 µM
[2]; read-out: TR-FRET IL-1β IC50
  IC50: 178 ± 38 µM
[3]
  I/Io (ratio of peak intensities of Leu60 Cδ1H3 in 1H-13C-HMQC spectra in presence and absence of ligand): 0.1 (N = 1)
[4]; read-out: TR-FRET IL-1α IC50
  IC50: > 200 µM

## O=C(O)c1ccccc1-c1ccc(O)c(C2(O)C(=O)Nc3cc(Cl)ccc32)c1 (stereo not drawn) [Compound 11]
[1]; [5]
  Ki: 63 ± 41 µM
[1]; [6]
  Ki: 92 µM and 34 µM
[2]; [7]
  IC50: 140 µM and 130 µM and 138 µM and 97.9 µM and 136 µM and 106 µM and 133 µM
[2]; read-out: TR-FRET IL-1β IC50
  IC50: 126 ± 17 µM
[2]; summary, read-out: TR-FRET IL-1beta IC50, AVRG
  IC50: 126 µM
[3]
  I/Io (ratio of peak intensities of Leu60 Cδ1H3 in 1H-13C-HMQC spectra in presence and absence of ligand): <0.1 (N = 1)
[4]; read-out: TR-FRET IL-1α IC50
  IC50: > 200 µM

## Cc1ccc2c(c1)NC(=O)[C@@]2(c1cn[nH]c1)c1cc(-c2ccc(C(=O)O)cc2C(=O)O)ccc1O [Compound (S)-2]
[1]; protein 10 μM, reporter (S)-1 40 μM, read-out: 19F-reporter Ki
  Ki: < 10 µM
[2]; [8]
  TR-FRET calculated % inhibition: -3% and -1% and 0%
  TR-FRET raw data: 90 and 159 and 163 and 162 and 161
[2]; [9]
  TR-FRET calculated % inhibition: -1% and 1% and 0%
  TR-FRET raw data: 89 and 157 and 158 and 161
[2]; [10]
  TR-FRET calculated % inhibition: 1% and 3%
  TR-FRET raw data: 87 and 156 and 155 and 157
[2]; [11]
  TR-FRET calculated % inhibition: 10% and 7%
  TR-FRET raw data: 78 and 144 and 149 and 146 and 151
[2]; IL-1beta, 0.2 uM, per experiment, read-out: TR-FRET calculated % inhibition
  inhibition at 0.2 µM: 13%
[2]; [12]
  TR-FRET calculated % inhibition: 20% and 23% and 21%
  TR-FRET raw data: 67 and 130 and 131 and 128
[2]; IL-1beta, 0.6 uM, per experiment, read-out: TR-FRET calculated % inhibition
  inhibition at 0.6 µM: 28%
[2]; IL-1beta, 2 uM, per experiment
  TR-FRET calculated % inhibition: 40% and 39%
[2]; IL-1beta, 2 uM, per experiment, read-out: TR-FRET calculated % inhibition
  inhibition at 2 µM: 55%
[2]; IL-1beta, 6 uM, per experiment
  TR-FRET calculated % inhibition: 61% and 62% and 60%
[2]; IL-1beta, 6 uM, per experiment, read-out: TR-FRET calculated % inhibition
  inhibition at 6 µM: 72%
[2]; IL-1beta, 20 uM, per experiment
  TR-FRET calculated % inhibition: 80% and 78% and 79%
[2]; IL-1beta, 20 uM, per experiment, read-out: TR-FRET calculated % inhibition
  inhibition at 20 µM: 88%
[2]; [13]
  TR-FRET calculated % inhibition: 92%
  TR-FRET raw data: 16 and 27 and 29 and 28
[2]; IL-1beta, 63 uM, per experiment, read-out: TR-FRET calculated % inhibition
  inhibition at 63 µM: 95%
[2]; IL-1beta, 200 uM, per experiment
  TR-FRET raw data: 12 and 16 and 17
[2]; IL-1beta, 200 uM, per experiment, read-out: TR-FRET calculated % inhibition
  inhibition at 200 µM: 100%
[2]; [7]
  IC50: 2.1 µM and 4.2 µM and 4.6 µM and 4.4 µM and 4.7 µM
[2]; read-out: TR-FRET IL-1β IC50
  IC50: 4 ± 1.1 µM
[3]
  I/Io (ratio of peak intensities of Leu60 Cδ1H3 in 1H-13C-HMQC spectra in presence and absence of ligand): <0.1
[4]
  inhibition of the IL-1R1/IL-1α interaction: did not observe inhibition of IL-1α
[4]; [14]
  TR-FRET calculated % inhibition: 3%
  TR-FRET raw data: 96 and 97
[4]; IL-1alpha, 0.01 uM, per experiment, read-out: TR-FRET calculated % inhibition
  inhibition at 0.01 µM: 4%
[4]; IL-1alpha, 0.02 uM, per experiment
  TR-FRET raw data: 96
[4]; IL-1alpha, 0.02 uM, per experiment, read-out: TR-FRET calculated % inhibition
  inhibition at 0.02 µM: 5%
[4]; [15]
  TR-FRET calculated % inhibition: 2%
  TR-FRET raw data: 96 and 98
[4]; IL-1alpha, 0.1 uM, per experiment, read-out: TR-FRET calculated % inhibition
  inhibition at 0.1 µM: 4%
[4]; [16]
  TR-FRET calculated % inhibition: 3%
  TR-FRET raw data: 95 and 97
[4]; IL-1alpha, 0.2 uM, per experiment, read-out: TR-FRET calculated % inhibition
  inhibition at 0.2 µM: 6%
[4]; IL-1alpha, 0.6 uM, per experiment
  TR-FRET raw data: 99 and 89
[4]; [17]
  TR-FRET calculated % inhibition: 2% and 11%
  TR-FRET raw data: 98 and 90
[4]; IL-1alpha, 6 uM, per experiment
  TR-FRET raw data: 87 and 97
[4]; IL-1alpha, 20 uM, per experiment
  TR-FRET raw data: 87 and 99
[4]; [18]
  TR-FRET calculated % inhibition: 8% and 2%
  TR-FRET raw data: 93 and 98
[4]; [19]
  TR-FRET calculated % inhibition: 7% and 1%
  TR-FRET raw data: 94 and 99
[4]; Il1a, read-out: TR-FRET IC50, individual experiments
  IC50: > 200 µM
[4]; read-out: TR-FRET IL-1α IC50
  IC50: > 200 µM
